Active and inactive are the calls of the source.
Assays:
[1] = biological target: T1, Mitochondrial peptide methionine sulfoxide reductase (Bos taurus, UniProt P54149); format: functional;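 also: absorbance read-out, biochemical high-throughput dose-response screen for MsrA inhibitors, confirmatory; recombinant bovine MsrA coupled to E. coli TrxB with NADPH and selenocystamine; potency is for inhibitors of MsrA activity on DMSO substrate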
T1 sequence (P54149 whole entry): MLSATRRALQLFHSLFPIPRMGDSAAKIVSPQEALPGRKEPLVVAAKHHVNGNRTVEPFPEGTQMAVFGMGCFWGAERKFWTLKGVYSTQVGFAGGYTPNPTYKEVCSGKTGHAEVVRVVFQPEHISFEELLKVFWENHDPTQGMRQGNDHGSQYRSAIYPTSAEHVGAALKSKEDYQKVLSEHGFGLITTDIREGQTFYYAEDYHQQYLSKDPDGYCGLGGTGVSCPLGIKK

[2] = biological target: T2, Caspase-6 (Homo sapiens, UniProt P55212); assay: human caspase-6 inhibitors, dose response, biochemical, VEID-R110 fluorescence, cherry-pick (AID 720632)
T2 sequence (P55212 whole entry): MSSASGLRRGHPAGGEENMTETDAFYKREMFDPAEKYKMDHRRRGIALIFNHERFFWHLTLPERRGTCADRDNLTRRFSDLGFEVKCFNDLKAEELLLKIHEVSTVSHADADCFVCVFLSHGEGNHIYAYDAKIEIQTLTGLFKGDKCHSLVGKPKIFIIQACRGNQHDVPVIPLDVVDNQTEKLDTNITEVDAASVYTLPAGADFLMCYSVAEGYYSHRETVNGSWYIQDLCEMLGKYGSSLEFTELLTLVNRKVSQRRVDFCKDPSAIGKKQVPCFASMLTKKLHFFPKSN

[3] = biological target: Cytochrome P450 2D6 (Homo sapiens, UniProt P10635);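 also: CYP2D6 member of a cytochrome P450 panel assay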
[4] = system: Vero; assay: cells; format: functional; conditions: Chlorocebus sabaeus
[5] = biological target: T3, Cytochrome P450 1A2 (Homo sapiens, UniProt P05177);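 also: PubChem cytochrome P450 panel assay, CYP1A2 panel member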
T3 sequence (P05177 whole entry): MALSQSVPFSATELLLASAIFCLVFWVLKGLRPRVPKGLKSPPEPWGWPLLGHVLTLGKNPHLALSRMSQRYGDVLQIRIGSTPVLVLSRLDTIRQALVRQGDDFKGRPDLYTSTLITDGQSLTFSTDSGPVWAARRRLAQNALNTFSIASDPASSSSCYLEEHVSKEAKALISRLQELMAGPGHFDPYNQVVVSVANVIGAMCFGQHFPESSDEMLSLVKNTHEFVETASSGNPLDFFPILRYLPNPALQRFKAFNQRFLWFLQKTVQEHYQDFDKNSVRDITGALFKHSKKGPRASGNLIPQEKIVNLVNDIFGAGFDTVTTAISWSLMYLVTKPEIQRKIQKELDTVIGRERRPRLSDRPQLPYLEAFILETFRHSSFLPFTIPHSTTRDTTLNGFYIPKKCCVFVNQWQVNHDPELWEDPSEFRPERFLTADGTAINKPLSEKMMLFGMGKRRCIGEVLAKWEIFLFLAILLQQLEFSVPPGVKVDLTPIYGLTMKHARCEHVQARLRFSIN

[6] = biological target: Cytochrome P450 2C9 (Homo sapiens, UniProt P11712)
[7] = system: HEK293; assay: cells; conditions: Homo sapiens
[8] = HepG2 cell cytotoxicity, dose response, cytotoxicity control for Shn3 inhibitor project, CellTiter-Glo, cherry-picked (AID 624134); format: functional, cell-based
[9] = control 3'UTR Renilla luciferase suppression, dose response, counter-screen for Shn3 inhibitor project, cell-based, Clone20-Shn3RL, cherry-picked (AID 624133); format: functional
[10] = biological target: Beta Lactamase (Pseudomonas aeruginosa, UniProt Q932Y6); assay: beta-lactamase reporter inhibitor potency, dose response, artefact control for TLR9-MyD88 binding inhibitor project, BLA reporter cells, FRET fluorescence (AID 588341); format: cell-based;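 also: cell based assay in CHO-K1 cells stably expressing beta-lactamase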
[11] = Shn3 3'UTR reporter inhibitors, dose response, cell-based, Clone20 osteoblasts, firefly luciferase, cherry-picked (AID 624132); format: functional;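 also: firefly luciferase luminescence from reporter carrying the Shn3 3'UTR in osteoblasts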
[12] = microbe, parasite or virus in culture; format: functional; conditions: Mycobacterium tuberculosis
[13] = system: CHO; assay: cytotoxicity in TLR9-MyD88 CHO cells, dose response, cytotoxicity control for TLR9-MyD88 binding inhibitor project, cell-based, luminescence (AID 588339); format: functional, hamster; conditions: Cricetulus griseus;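 also: CHO cells stably coexpressing TLR9 and MyD88 fusions from primary screen; compound exposure lasted 48 hours before viability readout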
[14] = system: HEK293; assay: cells; conditions: Homo sapiens; remark: listed apart in the source
[15] = biological target: G-protein coupled receptor 55 (Homo sapiens, UniProt Q9Y2T6); assay: GPR55 antagonists blocking LPI-driven arrestin recruitment, primary screen, imaging, U2OS, beta-arrestin-GFP, LPI agonist (AID 2013); format: functional;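 also: antagonist potency measured as reduced agonist-driven arrestin aggregation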
[16] = biological target: T4, E3 ubiquitin-protein ligase XIAP (Homo sapiens, UniProt P98170); assay: Counter Screen using XIAP-Bir3 for Chemical Antagonists of Bir1/2 domains of IAP-family anti-apoptotic proteins. [Related pubchem assays (depositor defined):AID1018, AID1449, AID1514, AID1638, AID1749, AID1750, AID488957, AID488963]
[17] = biological target: T4, E3 ubiquitin-protein ligase XIAP; assay: XIAP antagonists, biochemical, IAP family, fluorescence polarization (AID 1018); format: functional
[18] = biological target: 26S proteasome non-ATPase regulatory subunit 14 (Homo sapiens, UniProt O00487); assay: inhibition of proteasome subunit RPN11 – biochemical, fluorescence polarization, uHTS hits, confirmation (AID 602368); format: functional
[19] = biological target: Prothrombin (Bos taurus, UniProt P00735); assay: thrombin inhibition, dose response, biochemical, fluorescence polarization, uHTS hits (AID 602369); format: functional
[20] = biological target: 72 kDa type IV collagenase (Homo sapiens, UniProt P08253); assay: Dose Response validation of uHTS RPN11 inhibitor hits using a MMP-2 Fluorescence assay.; format: functional
[21] = biological target: T5, Tyrosine-protein phosphatase non-receptor type 7 (Homo sapiens, UniProt P35236); assay: redox-dependent HePTP inhibition, mechanism study, biochemical, fluorescence (AID 2068); format: functional
T5 sequence (P35236 whole entry): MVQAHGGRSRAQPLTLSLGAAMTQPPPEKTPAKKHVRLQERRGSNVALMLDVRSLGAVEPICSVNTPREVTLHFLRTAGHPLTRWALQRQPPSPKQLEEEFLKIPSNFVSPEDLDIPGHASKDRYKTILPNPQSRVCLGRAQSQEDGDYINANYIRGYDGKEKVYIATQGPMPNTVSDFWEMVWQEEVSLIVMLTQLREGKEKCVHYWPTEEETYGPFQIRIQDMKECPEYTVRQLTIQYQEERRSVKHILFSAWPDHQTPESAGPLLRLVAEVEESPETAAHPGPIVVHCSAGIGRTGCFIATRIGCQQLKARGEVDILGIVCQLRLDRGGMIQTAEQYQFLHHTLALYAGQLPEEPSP

[22] = biological target: T6, Orexin/Hypocretin receptor type 1 (Homo sapiens, UniProt O43613); assay: (§1) Fluorescence-based cell-based high throughput dose response assay for antagonists of the orexin 1 receptor (OX1R; HCRTR1). [Related pubchem assays (depositor defined):AID434989, AID435008, AID463079, AID485270, AID492963, AID492964, AID492965, AID493232, AID504717, AID504718]; format: functional
T6 sequence (O43613 whole entry): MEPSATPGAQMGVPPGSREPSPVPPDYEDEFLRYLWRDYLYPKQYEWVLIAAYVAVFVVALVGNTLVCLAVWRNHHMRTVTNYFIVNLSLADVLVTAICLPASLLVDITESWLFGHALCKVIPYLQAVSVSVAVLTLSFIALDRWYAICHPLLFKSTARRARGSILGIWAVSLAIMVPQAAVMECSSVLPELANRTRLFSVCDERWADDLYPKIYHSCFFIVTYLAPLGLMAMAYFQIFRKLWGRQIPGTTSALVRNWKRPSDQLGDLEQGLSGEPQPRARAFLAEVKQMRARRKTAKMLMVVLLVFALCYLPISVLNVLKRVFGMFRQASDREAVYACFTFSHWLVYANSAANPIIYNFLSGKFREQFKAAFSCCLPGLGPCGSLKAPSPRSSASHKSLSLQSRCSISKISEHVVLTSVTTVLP

[23] = biological target: T6, Orexin/Hypocretin receptor type 1; assay: as §1, with “Homogeneous Time Resolved Fluorescence (HTRF)-based” for “Fluorescence-based”; format: functional
[24] = system: CHO-K1; assay: (§2) Counterscreen for antagonists of the orexin 1 receptor (OX1R; HCRTR1): Homogeneous time resolved fluorescence (HTRF)-based cell-based dose response assay to identify antagonists of the parental CHO-K1 cell line. [Related pubchem assays (depositor defined):AID434989, AID435008, AID463079, AID485270, AID492963, AID492964, AID492965, AID493232, AID504699, AID504701]; format: functional; conditions: Cricetulus griseus
[25] = as §2, with “Fluorescence-based” for “Homogeneous time resolved fluorescence (HTRF)-based”, “cell-based high throughput” for “cell-based”, “CHO” for “CHO-K1”; format: functional
[26] = inhibitors of intracellular T. cruzi replication, confirmation, NIH3T3 host cells, beta-gal luminescence (AID 2044); format: functional, cell-based;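 also: intracellular parasites grown in NIH/3T3 mouse fibroblasts as host cells; luminescent beta-galactosidase reporter signal from transgenic T. cruzi replicating inside host cells; inhibitors lower the luminescence signal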
[27] = cytotoxicity toward NIH3T3 fibroblasts, dose response, counter-screen, cell-based, ATP luminescence, mouse fibroblasts (AID 2010); format: functional;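 also: cells exposed to compound for about 90 hours before reading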
[28] = inhibitors of HIV Env-driven cell fusion, dose response, cherry-pick (AID 652057); format: functional, cell-based
[29] = ZM109 Env clade C HIV-1 fusion inhibitors, dose response, HeLa effector, CEM target cells, luciferase, cherry-pick (AID 652058); format: functional, cell-based
[30] = off-target signal loss in HeLa-CEM21 co-culture – HeLa F-luc CTL cells, cherry-picked, counter-screen for HIV-1 Env fusion inhibitor project, dose response (AID 652040); format: functional, cell-based;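 also: potency for signal decrease marking cytotoxic or nonspecific inhibition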
[31] = inhibitors of clade B AD8 Env fusion, dose response, cell-based, cherry-pick (AID 652062); format: functional;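 also: luciferase signal from cell-cell fusion driven by HIV-1 clade B AD8 Env; potency is for inhibitors of fusion seen as a drop in luminescence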
[32] = Luminescence Cell-Based Dose Retest to Confirm Inhibitors of Cancer Stem Cells. [Related pubchem assays (depositor defined):AID2717, AID2721]; format: functional; conditions: Homo sapiens

Sequence of G-protein coupled receptor 55 (Q9Y2T6 whole entry): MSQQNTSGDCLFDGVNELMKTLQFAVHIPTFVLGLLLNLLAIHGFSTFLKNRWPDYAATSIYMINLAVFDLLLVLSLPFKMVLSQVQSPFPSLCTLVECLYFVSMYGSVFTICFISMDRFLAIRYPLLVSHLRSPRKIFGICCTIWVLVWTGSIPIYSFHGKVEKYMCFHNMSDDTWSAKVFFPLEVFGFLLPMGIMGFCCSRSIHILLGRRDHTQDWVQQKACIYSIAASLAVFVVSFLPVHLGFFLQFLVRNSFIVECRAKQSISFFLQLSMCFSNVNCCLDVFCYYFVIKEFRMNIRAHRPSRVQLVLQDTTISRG
T4 sequence (P98170 whole entry): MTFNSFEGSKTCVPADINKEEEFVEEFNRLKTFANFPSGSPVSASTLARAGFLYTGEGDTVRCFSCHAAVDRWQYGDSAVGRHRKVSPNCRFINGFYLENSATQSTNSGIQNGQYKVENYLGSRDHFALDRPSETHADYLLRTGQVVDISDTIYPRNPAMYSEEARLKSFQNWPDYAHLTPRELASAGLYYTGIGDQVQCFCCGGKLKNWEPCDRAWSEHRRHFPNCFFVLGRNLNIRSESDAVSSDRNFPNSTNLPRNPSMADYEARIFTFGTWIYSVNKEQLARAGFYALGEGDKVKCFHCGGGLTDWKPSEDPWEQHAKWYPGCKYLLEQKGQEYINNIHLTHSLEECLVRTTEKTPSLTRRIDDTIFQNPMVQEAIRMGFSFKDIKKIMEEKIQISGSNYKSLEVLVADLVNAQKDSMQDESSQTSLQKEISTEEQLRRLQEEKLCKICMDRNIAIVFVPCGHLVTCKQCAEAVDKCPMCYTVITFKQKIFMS
Sequence of Beta Lactamase (Q932Y6 whole entry): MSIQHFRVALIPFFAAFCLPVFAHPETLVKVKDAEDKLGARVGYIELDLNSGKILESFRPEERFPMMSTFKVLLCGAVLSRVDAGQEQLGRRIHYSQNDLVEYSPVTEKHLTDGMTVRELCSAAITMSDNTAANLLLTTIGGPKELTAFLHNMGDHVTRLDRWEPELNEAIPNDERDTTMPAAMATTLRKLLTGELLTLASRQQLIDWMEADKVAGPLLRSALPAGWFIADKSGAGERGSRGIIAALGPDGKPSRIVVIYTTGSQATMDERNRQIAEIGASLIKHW
Sequence of 26S proteasome non-ATPase regulatory subunit 14 (O00487 whole entry): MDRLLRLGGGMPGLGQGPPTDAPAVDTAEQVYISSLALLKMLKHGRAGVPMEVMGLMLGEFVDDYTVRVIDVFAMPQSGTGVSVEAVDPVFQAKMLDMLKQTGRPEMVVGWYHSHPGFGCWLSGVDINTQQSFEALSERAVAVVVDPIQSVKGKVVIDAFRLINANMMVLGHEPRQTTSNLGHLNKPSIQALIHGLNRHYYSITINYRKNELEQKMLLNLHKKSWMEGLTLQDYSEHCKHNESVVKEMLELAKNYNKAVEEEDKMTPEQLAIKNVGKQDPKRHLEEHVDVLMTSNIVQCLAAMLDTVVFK
Sequence of 72 kDa type IV collagenase (P08253 whole entry): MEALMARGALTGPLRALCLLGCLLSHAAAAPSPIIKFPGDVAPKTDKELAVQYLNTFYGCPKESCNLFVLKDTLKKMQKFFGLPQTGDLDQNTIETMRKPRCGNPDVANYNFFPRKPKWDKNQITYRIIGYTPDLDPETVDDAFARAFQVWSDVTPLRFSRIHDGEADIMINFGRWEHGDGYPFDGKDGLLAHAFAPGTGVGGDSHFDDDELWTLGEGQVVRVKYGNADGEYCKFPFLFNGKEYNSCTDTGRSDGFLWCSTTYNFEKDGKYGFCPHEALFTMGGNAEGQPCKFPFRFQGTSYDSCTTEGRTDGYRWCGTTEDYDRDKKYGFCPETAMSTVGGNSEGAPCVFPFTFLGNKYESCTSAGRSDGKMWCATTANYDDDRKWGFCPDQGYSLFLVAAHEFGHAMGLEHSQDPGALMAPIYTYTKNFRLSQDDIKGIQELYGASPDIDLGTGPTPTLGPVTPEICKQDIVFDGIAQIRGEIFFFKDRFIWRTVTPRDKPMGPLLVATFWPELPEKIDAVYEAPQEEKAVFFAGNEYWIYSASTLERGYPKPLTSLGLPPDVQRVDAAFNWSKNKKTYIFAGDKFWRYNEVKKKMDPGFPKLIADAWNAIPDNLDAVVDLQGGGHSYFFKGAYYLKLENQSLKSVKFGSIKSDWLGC
Sequence of Cytochrome P450 2D6 (P10635 whole entry): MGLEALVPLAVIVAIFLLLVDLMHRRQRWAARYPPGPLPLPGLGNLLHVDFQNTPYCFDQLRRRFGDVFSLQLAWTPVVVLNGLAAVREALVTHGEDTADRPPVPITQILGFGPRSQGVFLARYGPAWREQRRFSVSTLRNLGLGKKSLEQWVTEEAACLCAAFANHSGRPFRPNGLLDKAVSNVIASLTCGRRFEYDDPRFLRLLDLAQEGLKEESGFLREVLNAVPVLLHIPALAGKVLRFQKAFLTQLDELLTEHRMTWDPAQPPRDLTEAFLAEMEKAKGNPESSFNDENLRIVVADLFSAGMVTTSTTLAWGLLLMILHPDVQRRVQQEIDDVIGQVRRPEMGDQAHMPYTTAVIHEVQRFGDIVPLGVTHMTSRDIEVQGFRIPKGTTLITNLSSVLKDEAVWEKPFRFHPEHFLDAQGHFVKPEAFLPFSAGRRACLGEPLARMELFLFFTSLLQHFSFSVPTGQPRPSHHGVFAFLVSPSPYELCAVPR
Sequence of Cytochrome P450 2C9 (P11712 whole entry): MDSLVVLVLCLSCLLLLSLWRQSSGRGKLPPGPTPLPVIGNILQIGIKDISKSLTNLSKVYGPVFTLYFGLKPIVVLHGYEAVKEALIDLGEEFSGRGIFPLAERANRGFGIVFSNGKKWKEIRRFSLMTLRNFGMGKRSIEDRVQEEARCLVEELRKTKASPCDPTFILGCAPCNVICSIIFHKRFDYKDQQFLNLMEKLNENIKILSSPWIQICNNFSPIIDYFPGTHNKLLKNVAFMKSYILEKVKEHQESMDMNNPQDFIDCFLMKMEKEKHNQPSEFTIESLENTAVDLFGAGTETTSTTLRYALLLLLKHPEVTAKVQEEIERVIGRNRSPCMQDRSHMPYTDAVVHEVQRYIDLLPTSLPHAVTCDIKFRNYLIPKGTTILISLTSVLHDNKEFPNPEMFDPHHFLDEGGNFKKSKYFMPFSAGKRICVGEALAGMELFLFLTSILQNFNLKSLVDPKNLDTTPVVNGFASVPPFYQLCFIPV

Compound: Cn1cnc([N+](=O)[O-])c1S(=O)(=O)Nc1ccccc1
- IC50 [1]: 52.8 µM (inactive)
- AC50 [2]: 9.66 µM (active)

Compound: S=C1SCN(Cc2ccccn2)CN1Cc1ccco1
- AC50 [3]: 17.8 µM (inconclusive)
- CC50 [4]: 24 µM (active)
- AC50 [5]: 11.2 µM (inconclusive)
- AC50 [6]: 14.1 µM (inconclusive)

Compound: CCCCNc1c(-c2ccc(-c3ccc(OC)cc3)c(OC)c2)nc2ccccn12
- CC50 [4]: > 25 µM (active)

Compound: Nc1cc(Cl)c2nonc2c1[N+](=O)[O-]
- EC50 [7]: > 59.7 µM (inactive)
- AC50 [8]: 29.6 µM (active)
- AC50 [9]: 1.37 µM (active)
- IC50 [10]: > 49.7 µM (inactive)
- AC50 [11]: 5.37 µM (active)
- CC50 [12]: 12 µM (active)
- IC50 [13]: 2.12 µM (active)
- EC50 [14]: > 59.7 µM (inactive)

Compound: CN(C)C=O.CN(C)c1ccc(/C=C/c2nc3ccccc3c(=O)n2-c2ccc(C(=O)O)cc2)cc1
- IC50 [10]: 9 µM (active)
- IC50 [13]: > 49.7 µM (inactive)

Compound: O=C1CSC(c2ccccc2Br)N1c1ccc(Cl)cn1 (centres undefined)
- IC50 [15]: 4.58 µM (active)

Compound: CCOC(=O)c1c(CSC(=N)N)n(C)c2cc(Br)c(OC(C)=O)cc12
- IC50 [15]: 1.22 µM (active)

Compound: O=C(Nc1ccc(F)cc1)c1ccccc1CC[N+](=O)[O-]
- IC50 [16]: > 100 µM (inactive)
- IC50 [17]: > 100 µM (not active)

Compound: NS(=O)(=O)c1ccc(N/C=C\C(=O)c2ccc3ccccc3c2)cc1
- IC50 [18]: 28.6 µM (active)
- IC50 [19]: 56.5 µM (active)
- IC50 [20]: > 100 µM (inactive)

Compound: C=CCn1c(SCC(=O)NCc2ccco2)nnc1-c1ccc2ccccc2n1
- IC50 [16]: > 100 µM (inactive)
- IC50 [17]: > 100 µM (not active)

Compound: O=C(Nc1ccc(Cl)cc1)Nc1ccc2nc(-c3ccco3)c(-c3ccco3)nc2c1
- IC50 [21]: 0.949 µM (active)

Compound: O=C(NCCN1C(=O)S/C(=C\c2ccccc2)C1=O)c1cc(S(=O)(=O)N2CCOCC2)c(Cl)cc1Cl
- IC50 [22]: 10.5 µM (inactive)
- IC50 [23]: 20.3 µM (inactive)
- IC50 [24]: > 66.2 µM (inactive)
- IC50 [25]: 21.3 µM (inactive)

Compound: CC(C)Cc1nnc(NC(=O)Cc2cccs2)s1
- IC50 [18]: 20.6 µM (active)
- IC50 [19]: 44.7 µM (active)
- IC50 [20]: > 100 µM (inactive)

Compound: O=C(Nc1ccc(Cl)cc1)N(Cc1cccnc1)Cc1ccco1
- IC50 [16]: > 100 µM (inactive)
- EC50 [26]: 1.1 µM (active)
- EC50 [27]: > 30 µM (not active)
- IC50 [17]: > 100 µM (not active)

Compound: Cc1cccc(C)c1-n1c(C)cc(/C=N\Nc2ccc([N+](=O)[O-])cn2)c1C
- IC50 [10]: 4.04 µM (active)
- IC50 [13]: > 49.8 µM (inactive)

Compound: COCCCN(C(=S)NC(=O)C12CC3CC(CC(C3)C1)C2)c1c(N)n(Cc2ccccc2)c(=O)[nH]c1=O
- EC50 [7]: > 59.7 µM (inactive)
- AC50 [28]: 1.97 µM (active)
- AC50 [29]: 2.64 µM (active)
- AC50 [30]: 1.92 µM (active)
- EC50 [14]: > 59.7 µM (inactive)
- AC50 [31]: 4.29 µM (active)

Compound: CC1(Cc2ccc(C(F)(F)F)nc2)C(=O)Nc2cc(-c3ccccc3Cl)ccc21 (centres undefined)
- EC50 [7]: > 59.6 µM (inactive)
- EC50 [14]: > 59.6 µM (inactive)

Compound: O=C(C1=C(O)C(=O)N(CCCn2ccnc2)C1c1cccc(Br)c1)c1ccco1 (centres undefined)
- IC50 [1]: 155 µM (inactive)

Compound: COc1cc2c(cc1OC)-c1cc(NC3CCCC3)nc(=O)n1CC2
- IC50 [16]: > 100 µM (inactive)
- IC50 [17]: > 100 µM (not active)

Compound: CC1CC(N(C(=O)c2ccco2)c2ccccc2)c2ccccc2N1C(=O)c1ccco1 (centres undefined)
- IC50 [15]: 5.52 µM (active)

Compound: C=CCC[C@@H](Cc1ccc(F)cc1)C(=O)OC[C@@H](Cc1c[nH]c2ccccc12)NC(=O)[C@@H](CC=C)CC(=O)N(CCO)Cc1ccccc1
- CC50 [4]: 15.5 µM (active)
- AC50 [32]: 5.96 µM (active)

Reference: ChEMBL document CHEMBL1201862, “PubChem BioAssay data set” (2004)
